Experimental data: the CheMixHub viscosity set

Assay: xn = mol fraction of the nth substance listed

CCCCCCCCCCCCCC(=O)OC + CCC1CCCCC1
viscosity [mPa·s], 100 kPa
Settings | x2 = 0.1016 | x2 = 0.2015 | x2 = 0.3 | x2 = 0.4021 | x2 = 0.4997 | x2 = 0.6005 | x2 = 0.7005 | x2 = 0.7999 | x2 = 0.9
293.15 K | 4.029 | 3.57 | 3.134 | 2.705 | 2.312 | 1.944 | 1.626 | 1.342 | 1.089
298.15 K | 3.577 | 3.181 | 2.785 | 2.419 | 2.079 | 1.774 | 1.489 | 1.237 | 1.009
303.15 K | 3.173 | 2.839 | 2.508 | 2.191 | 1.893 | 1.616 | 1.367 | 1.14 | 0.935
308.15 K | 2.804 | 2.513 | 2.231 | 1.948 | 1.701 | 1.469 | 1.248 | 1.045 | 0.862
313.15 K | 2.532 | 2.282 | 2.035 | 1.797 | 1.578 | 1.362 | 1.163 | 0.978 | 0.812
318.15 K | 2.328 | 2.104 | 1.887 | 1.666 | 1.469 | 1.277 | 1.097 | 0.93 | 0.772
323.15 K | 2.1 | 1.912 | 1.724 | 1.541 | 1.361 | 1.184 | 1.018 | 0.866 | 0.723

Cc1ccccc1O + CCC(=O)O
viscosity [mPa·s], 101 kPa
Settings | x2 = 0.1315 | x2 = 0.2542 | x2 = 0.3688 | x2 = 0.4761 | x2 = 0.5768 | x2 = 0.6716 | x2 = 0.7608 | x2 = 0.845 | x2 = 0.9246
298.15 K | 6.126 | 4.978 | 4.056 | 3.325 | 2.73 | 2.216 | 1.816 | 1.505 | 1.253
308.15 K | 4.701 | 3.949 | 3.325 | 2.79 | 2.329 | 1.93 | 1.606 | 1.33 | 1.1
318.15 K | 3.245 | 2.875 | 2.527 | 2.198 | 1.885 | 1.6 | 1.333 | 1.126 | 0.9354

CC(C)CO + CCC(C)O
Settings | viscosity [mPa·s]
313.15 K, 101 kPa, x2 = 0.3008 | 2.005

Cc1ccccc1O + CCCC(=O)O
viscosity [mPa·s], 101 kPa
Settings | x2 = 0.1104 | x2 = 0.2183 | x2 = 0.3237 | x2 = 0.4268 | x2 = 0.5276 | x2 = 0.6262 | x2 = 0.7227 | x2 = 0.8171 | x2 = 0.9095
298.15 K | 6.565 | 5.731 | 4.976 | 4.317 | 3.725 | 3.167 | 2.698 | 2.265 | 1.862
308.15 K | 4.973 | 4.431 | 3.973 | 3.534 | 3.113 | 2.687 | 2.294 | 1.936 | 1.575
318.15 K | 3.375 | 3.191 | 2.968 | 2.723 | 2.463 | 2.194 | 1.914 | 1.62 | 1.307

C=CC(=O)OC + CCCCC(C)O
viscosity [mPa·s], 101 kPa
Settings | 298.15 K | 308.15 K
x1 = 0.05507 | 3.631 | 2.614
x1 = 0.1 | 3.287 | 2.387
x1 = 0.1554 | 2.908 | 2.136
x1 = 0.1998 | 2.636 | 1.953
x1 = 0.2554 | 2.331 | 1.746
x1 = 0.2999 | 2.112 | 1.596
x1 = 0.3554 | 1.868 | 1.428
x1 = 0.3999 | 1.693 | 1.305
x1 = 0.4555 | 1.497 | 1.167
x1 = 0.4999 | 1.357 | 1.067
x1 = 0.5554 | 1.2 | 0.954
x1 = 0.5999 | 1.088 | 0.872
x1 = 0.6551 | 0.963 | 0.781
x1 = 0.7 | 0.872 | 0.713
x1 = 0.755 | 0.772 | 0.638
x1 = 0.7998 | 0.699 | 0.583
x1 = 0.8555 | 0.618 | 0.522
x1 = 0.8999 | 0.56 | 0.477
x1 = 0.9555 | 0.495 | 0.426

C=CC(=O)OCCCC + CCCCC(C)O
viscosity [mPa·s], 101 kPa
Settings | 298.15 K | 308.15 K
x1 = 0.05546 | 3.742 | 2.694
x1 = 0.0999 | 3.477 | 2.526
x1 = 0.1555 | 3.172 | 2.33
x1 = 0.1999 | 2.948 | 2.185
x1 = 0.2554 | 2.69 | 2.015
x1 = 0.3 | 2.499 | 1.889
x1 = 0.3555 | 2.28 | 1.743
x1 = 0.4 | 2.119 | 1.634
x1 = 0.4553 | 1.934 | 1.508
x1 = 0.5 | 1.796 | 1.413
x1 = 0.5556 | 1.639 | 1.304
x1 = 0.5998 | 1.523 | 1.222
x1 = 0.6554 | 1.39 | 1.128
x1 = 0.6998 | 1.291 | 1.057
x1 = 0.7554 | 1.178 | 0.957
x1 = 0.8 | 1.095 | 0.914
x1 = 0.8554 | 0.999 | 0.844
x1 = 0.9 | 0.928 | 0.791
x1 = 0.9555 | 0.847 | 0.729
